Reference: ChEMBL document CHEMBL5223145, “A small molecule binding to TGGAA pentanucleotide repeats that cause spinocerebellar ataxia type 31” (Bioorg Med Chem Lett, 2023)
The source made the active and inactive calls. No cut-off for these calls is given here.

Experiments:
[1] = Stabilization of GGA/AGA-motif DNA (unknown origin) assessed as increase in melting temperature at 5 to 10 uM; conditions: dose 5-10 µM
[2] = Stabilization of TGGAA DNA (unknown origin) assessed as increase in melting temperature at 2 to 20 uM; conditions: dose 2-20 µM
[3] = Stabilization of AGG/AGG-motif DNA (unknown origin) assessed as increase in melting temperature
[4] = Stabilization of GGA/GGA-motif DNA (unknown origin) assessed as increase in melting temperature
[5] = Stabilization of AGA/AGA-motif DNA (unknown origin) assessed as increase in melting temperature at 5 to 10 uM; conditions: dose 5-10 µM
[6] = Binding affinity to GGA/GGA-motif hairpin DNA (unknown origin) assessed as association constant by isothermal titration calorimetry
[7] = Stabilization of GGA/AAA-motif DNA (unknown origin) assessed as increase in melting temperature at 5 to 10 uM; conditions: dose 5-10 µM
[8] = Stabilization of GGA/AGG-motif DNA (unknown origin) assessed as increase in melting temperature at 5 to 10 uM; conditions: dose 5-10 µM
[9] = Stabilization of AGA/AAA-motif DNA (unknown origin) assessed as increase in melting temperature at 5 to 10 uM; conditions: dose 5-10 µM
[10] = Stabilization of AAA/AAA-motif DNA (unknown origin) assessed as increase in melting temperature at 5 to 10 uM; conditions: dose 5-10 µM
[11] = Stabilization of GGC/GGC -motif DNA (unknown origin) assessed as increase in melting temperature

Tm [1]	Tm [2]	Activity [3]	Tm [4]	Tm [5]	Ka [6]	Tm [7]	Tm [8]	Tm [9]	Tm [10]	Tm [11]	Activity [11]	Structure (SMILES)
9.8 °C	68.5 °C	inactive	13.8 °C	11.6 °C	2.5 10^7/M	-1.2 °C	13.8 °C	0.3 °C	-1.2 °C	4.6 °C		Cc1ccc2ccc(NC(=O)CCN(CCC(=O)Nc3ccc4ccc(C)nc4n3)C(=O)CCCN)nc2n1
		Active	7.5 °C							1.8 °C		Cc1ccc2ccc(NC(=O)CCNCCC(=O)Nc3ccc4ccc(C)nc4n3)nc2n1
		Active	6 °C								inactive	Cc1ccc2ccc(NC(=O)CCN(CCCCN)CCC(=O)Nc3ccc4ccc(C)nc4n3)nc2n1
		Active	6 °C								inactive	Cc1ccc2ccc(NC(=O)OCCCNCCCOC(=O)Nc3ccc4ccc(C)nc4n3)nc2n1
